Assay results taken from patent US11040026B2, “Muscarinic M1 receptor positive allosteric modulators” (SUVEN LIFE SCIENCES LIMITED, priority 2016, dated 2021).
Structures can show the parent of a compound that is named as a salt.

Target: T1, muscarinic M1 receptor (Homo sapiens, UniProt P11229)
T1 sequence (P11229 1-460): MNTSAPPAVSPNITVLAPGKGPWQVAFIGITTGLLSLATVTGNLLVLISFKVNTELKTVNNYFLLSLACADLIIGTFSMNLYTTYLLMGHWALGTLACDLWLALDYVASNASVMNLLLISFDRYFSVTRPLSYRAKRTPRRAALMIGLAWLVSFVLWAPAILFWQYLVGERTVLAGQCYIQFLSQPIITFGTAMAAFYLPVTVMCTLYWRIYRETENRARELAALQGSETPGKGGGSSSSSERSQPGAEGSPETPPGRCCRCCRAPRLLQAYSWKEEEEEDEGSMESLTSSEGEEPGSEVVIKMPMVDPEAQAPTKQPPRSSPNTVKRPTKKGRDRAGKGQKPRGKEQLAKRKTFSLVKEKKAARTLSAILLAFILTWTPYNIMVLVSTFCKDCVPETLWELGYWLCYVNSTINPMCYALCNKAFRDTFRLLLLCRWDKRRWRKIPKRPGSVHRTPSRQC
Test: Allosteric potency EC50 for muscarinic M1 receptor (CHO pCRE-Luc reporter assay)
Format: cell-based
Details: in presence of EC20 of acetylcholine; CHO cells, luciferase reporter, 4 hours
Experimental: Determination of Allosteric Potency EC50 Values for Muscarinic M1 Receptor:
A stable CHO cell line expressing recombinant human Muscarinic M1 receptor and pCRE-Luc reporter system was used for cell-based assay. The assay offers a non-radioactive based approach to determine binding of a compound to GPCRs. In this specific assay, the level of intracellular cyclic AMP which is modulated by activation or inhibition of the receptor is measured. The recombinant cells harbor luciferase reporter gene under the control of cyclic AMP response element.
The above cells were grown in 96 well clear bottom white plates in Hams F12 medium containing 10% fetal bovine serum (FBS). Prior to the addition of compounds or standard agonist, cells were serum starved overnight. Increasing concentrations of test compounds were added along with EC20 of acetylcholine in OptiMEM medium to the cells. The incubation was continued at 37° C. in CO2 incubator for 4 hours. Medium was removed and cells were washed with phosphate buffered saline. The cells were lysed and luciferase activity was measured in a Luminometer. Luminescence units were plotted against the compound concentrations using Graphpad software. EC50 values of the compounds were defined as the concentration required in stimulating the luciferase activity by 50% in presence of EC20 of acetylcholine and the results are provided in table 1.

Row | EC50 | Structure (SMILES)
1 | 32 nM | Cn1ccc2c(Cc3ccc(-c4cscn4)cc3)cc(C(=O)N[C@@H]3CCOC[C@H]3O)nc21 (single isomer, unassigned; isomer-ii) [Example 55, trans-N-(3-Hydroxytetrahydropyran-4-yl)-4-[4-(thiazol-4-yl)benzyl]-1-methyl-1H-pyrrolo[2,3-b]pyridine-6-carboxamide (Isomer-II)]
2 | 222 nM | COc1ccc(Cc2cc(C(=O)N[C@@H]3CCOC[C@H]3O)nc3c2ccn3C)cc1 (single isomer, unassigned; isomer-ii) [Example 61, trans-N-(3-Hydroxytetrahydropyran-4-yl)-4-(4-methoxybenzyl)-1-methyl-1H-pyrrolo[2,3-b]pyridine-6-carboxamide (Isomer-II)]
3 | 6 nM | O=C(N[C@@H]1CCOC[C@H]1O)c1cc(Cc2ccc(-c3cscn3)cc2)c2c(n1)CNCC2 (single isomer, unassigned; isomer-ii) [Example 97, trans-N-(3-Hydroxytetrahydropyran-4-yl)-4-[4-(thiazol-4-yl)benzyl]-5,6,7,8-tetrahydro[1,7]naphthyridine-2-carboxamide Hydrochloride (Isomer-II)]
4 | 109 nM | O=C(N[C@@H]1CCOC[C@H]1O)c1cc(Cc2ccc(F)cc2)c2c(n1)CNCC2 (single isomer, unassigned; isomer-ii) [Example 98, trans-N-(3-Hydroxytetrahydropyran-4-yl)-4-(4-fluorobenzyl)-5,6,7,8-tetrahydro[1,7]naphthyridine-2-carboxamide Hydrochloride (Isomer-II)]
5 | 1080 nM | COc1ccc(Cc2cc(C(=O)N[C@H]3CCCC[C@@H]3O)nc3c2ccn3C)cn1 [Example 2, N-[(1S,2S)-2-Hydroxycyclohexyl]-4-(2-methoxypyridin-5-ylmethyl)-1-methyl-1H-pyrrolo[2,3-b]pyridine-6-carboxamide]
6 | 977 nM | Cn1ccc2c(Cc3ccc(F)nc3)cc(C(=O)N[C@H]3CCCC[C@@H]3O)nc21 [Example 3, N-[(1S,2S)-2-Hydroxycyclohexyl]-4-(2-fluoropyridin-5-ylmethyl)-1-methyl-1H-pyrrolo[2,3-b]pyridine-6-carboxamide]
7 | 811 nM | Cn1ccc2c(Cc3ccc(F)cc3)cc(C(=O)N[C@H]3CCCC[C@@H]3O)nc21 [Example 4, N-[(1S,2S)-2-Hydroxycyclohexyl]-4-(4-fluorobenzyl)-1-methyl-1H-pyrrolo[2,3-b]pyridine-6-carboxamide]
8 | 130 nM | Cn1ccc2c(Cc3ccc(-c4cscn4)cc3)cc(C(=O)N[C@H]3CCCC[C@@H]3O)nc21 [Example 5, N-[(1S,2S)-2-Hydroxycyclohexyl]-4-(4-thiazol-4-ylbenzyl)-1-methyl-1H-pyrrolo[2,3-b]pyridine-6-carboxamide]
9 | 15 nM | Cn1ccc2c(Cc3ccc(-n4cccn4)cc3)cc(C(=O)N[C@H]3CCCC[C@@H]3O)nc21 [Example 6, N-[(1S,2S)-2-Hydroxycyclohexyl]-4-(4-pyrazol-1-ylbenzyl)-1-methyl-1H-pyrrolo[2,3-b]pyridine-6-carboxamide]
10 | 8 nM | Cn1cc(-c2ccc(Cc3cc(C(=O)N[C@H]4CCCC[C@@H]4O)nc4c3ccn4C)cc2)cn1 [Example 7, N-[(1S,2S)-2-Hydroxycyclohexyl]-4-[4-(1-methyl-1H-pyrazol-4-yl)benzyl]-1-methyl-1H-pyrrolo[2,3-b]pyridine-6-carboxamide]
11 | 17 nM | Cn1cc(-c2ccc(Cc3cc(C(=O)N[C@H]4CCCC[C@@H]4O)nc4c3ccn4C)c(F)c2)cn1 [Example 8, N-[(1S,2S)-2-Hydroxycyclohexyl]-4-[2-fluoro-4-(1-methyl-1H-pyrazol-4-yl)benzyl]-1-methyl-1H-pyrrolo[2,3-b]pyridine-6-carboxamide]
12 | 1570 nM | Cc1ccc(Cc2cc(C(=O)N[C@H]3CCCC[C@@H]3O)nc3c2ccn3C)cn1 [Example 9, N-[(1S,2S)-2-Hydroxycyclohexyl]-4-(2-methylpyridin-5-ylmethyl)-1-methyl-1H-pyrrolo[2,3-b]pyridine-6-carboxamide]
13 | 1720 nM | Cn1ccc2c(Cc3cc(F)ncc3F)cc(C(=O)N[C@H]3CCCC[C@@H]3O)nc21 [Example 11, N-[(1S,2S)-2-Hydroxycyclohexyl]-4-(2,5-difluoropyridin-4-ylmethyl)-1-methyl-1H-pyrrolo[2,3-b]pyridine-6-carboxamide]
14 | 306 nM | Cn1ccc2c(Cc3ccc4ncsc4c3)cc(C(=O)N[C@H]3CCCC[C@@H]3O)nc21 [Example 12, N-[(1S,2S)-2-Hydroxycyclohexyl]-4-(benzothiazol-6-ylmethyl)-1-methyl-1H-pyrrolo[2,3-b]pyridine-6-carboxamide]
15 | 617 nM | Cn1ccc2c(Cc3ccc(-c4ccc(F)nc4)nc3)cc(C(=O)N[C@H]3CCCC[C@@H]3O)nc21 [Example 13, N-[(1S,2S)-2-Hydroxycyclohexyl]-4-(2′-fluoro-[2,5]bipyridinyl-5-ylmethyl)-1-methyl-1H-pyrrolo[2,3-b]pyridine-6-carboxamide]
16 | 891 nM | Cn1ccc2c(Cc3ccncc3)cc(C(=O)N[C@H]3CCCC[C@@H]3O)nc21 [Example 14, N-[(1S,2S)-2-Hydroxycyclohexyl]-4-(pyridin-4-ylmethyl)-1-methyl-1H-pyrrolo[2,3-b]pyridine-6-carboxamide]
17 | 38 nM | Cn1cc(-c2ccc(Cc3cc(C(=O)N[C@H]4CCCC[C@@H]4O)nc4c3ccn4C)cn2)cn1 [Example 15, N-[(1S,2S)-2-Hydroxycyclohexyl]-4-[2-(1-methyl-1H-pyrazol-4-yl)pyridin-5-ylmethyl]-1-methyl-1H-pyrrolo[2,3-b]pyridine-6-carboxamide]
18 | 1290 nM | Cn1ccc2c(Cc3cccc(F)c3F)cc(C(=O)N[C@H]3CCCC[C@@H]3O)nc21 [Example 16, N-[(1S,2S)-2-Hydroxycyclohexyl]-4-(2,3-difluorobenzyl)-1-methyl-1H-pyrrolo[2,3-b]pyridine-6-carboxamide]
19 | 1630 nM | Cc1cc(Cc2cc(C(=O)N[C@H]3CCCC[C@@H]3O)nc3c2ccn3C)ccn1 [Example 17, N-[(1S,2S)-2-Hydroxycyclohexyl]-4-(2-methylpyridin-4-ylmethyl)-1-methyl-1H-pyrrolo[2,3-b]pyridine-6-carboxamide]
20 | 1110 nM | COc1ccc(Cc2cc(C(=O)N[C@H]3CCCC[C@@H]3O)nc3c2ccn3C)cc1 [Example 19, N-[(1S,2S)-2-Hydroxycyclohexyl]-4-(4-methoxybenzyl)-1-methyl-1H-pyrrolo[2,3-b]pyridine-6-carboxamide]
21 | 315 nM | CSc1ccc(Cc2cc(C(=O)N[C@H]3CCCC[C@@H]3O)nc3c2ccn3C)cn1 [Example 20, N-[(1S,2S)-2-Hydroxycyclohexyl]-4-(2-methylsulfanylpyridin-5-ylmethyl)-1-methyl-1H-pyrrolo[2,3-b]pyridine-6-carboxamide]
22 | 1050 nM | Cc1ncccc1-c1ccc(Cc2cc(C(=O)N[C@H]3CCCC[C@@H]3O)nc3c2ccn3C)cc1 [Example 21, N-[(1S,2S)-2-Hydroxycyclohexyl]-4-[4-(2-methylpyridin-3-yl)benzyl]-1-methyl-1H-pyrrolo[2,3-b]pyridine-6-carboxamide]
23 | 727 nM | O=C(N[C@H]1CCCC[C@@H]1O)c1cc(Cc2ccc(Cl)nc2)c2ccn(CCF)c2n1 [Example 23, N-[(1S,2S)-2-Hydroxycyclohexyl]-4-(2-chloropyridin-5-ylmethyl)-1-(2-fluoroethyl)-1H-pyrrolo[2,3-b]pyridine-6-carboxamide]
